{"source": "patent US20190336496A1", "about": "“SELECTIVE BCL-2 INHIBITORS IN COMBINATION WITH AN ANTI-PD-1 OR AN ANTI-PD-L1 ANTIBODY FOR THE TREATMENT OF CANCERS” (AbbVie Inc., priority 2018, published 2019)", "key": {"human PBMCs": {"system": "human PBMCs", "experiment": "In vitro sensitivity of human PBMCs", "format": "cell-based", "method": "Human PBMCs were thawed and cultured overnight in 30 U/mL of interleukin-2 (IL-2). Cells were harvested, washed once with complete media and counted. PBMCs were plated at a density of 5×10^5 cells per well in a 48-well plate with 30 U/mL IL-2. For stimulation of T-cells, cells were plated in anti-CD3-coated wells (2.5 μg/mL; ThermoFisher cat. #16-0037-85, clone OKT3) and soluble anti-CD28 was added (1 μg/mL; ThermoFisher cat. #16-0289-85, clone CD28.2). Cells were treated with increasing concentrations of venetoclax for 24 hours (dimethyl sulfoxide (DMSO) was used as control). Cells were harvested, stained and subjected to flow cytometry analysis with a BD LSRII instrument (BD Biosciences)\nHowever, when PBMCs were stimulated with anti-CD3 and anti-CD28 for 72 hours before treating with venetoclax, the T-cells were not sensitive to venetoclax. (FIG. 7B). While the proportion of naïve T-cells (CD4^+CD62L^+CD45RO^− and […]) decreased with increasing venetoclax concentrations, the proportion of CD4^+ central memory (TCM; CD62L^+CD45RO^+) and CD8^+ terminally differentiated effector memory (TEMRA; CD8^+CD62L^−CD45RO^−) and effector memory cells (TEM; CD8^+CD62L^−CD45RO^+) increased relative to the number of surviving T-cells (FIGS. 8A and 8C). […] In separate experiments, human PBMCs were thawed, rested overnight and then treated with venetoclax for 24 hours. Similar results were observed when increasing the number of tested samples (n=9 donors), and refining the markers for the different T-cell subsets: naïve T-cells (TN; CD62L+CD45RA+), central memory (TCM; CD62L+CD45RA−), effector memory cells (TEM; CD62L−CD45RA−) and terminally differentiated effector memory (TEMRA; CD62L−CD45RA+) (FIGS. 8E, 8F, 8G). Venetoclax decreases the proportion of naïve T-cells, but not memory cells, and specifically induces an increase in effector memory T-cells. It can therefore be seen that, while naïve T- and B-cells were sensitive to venetoclax, memory T-cells were less sensitive to venetoclax. While TCM cells home to lymph nodes and efficiently stimulate dendritic cells, TEM and TEMRA cells home to tissues, comprised of antigen-experienced cells and are ready to mediate rapid effector and cytotoxic functions necessary to kill the tumor."}, "NCI-H211": {"system": "NCI-H211", "experiment": "Venetoclax cell killing (CellTiter-Glo)", "format": "cell-based, human", "method": "Solid tumor cell lines were obtained from American Type Culture Collection (ATCC, Manassas, Va.) or the National Cancer Institute (NCI) and cultured in humidified incubators at 37° C. (5% CO2) in appropriate media (specified by supplier) supplemented with 10% fetal bovine serum (FBS) or 10% human serum (HS). 24 hours after plating into 96-well or 384-well tissue culture plates, venetoclax was added to cells at various concentrations (typically 0.010 to 10 μM in half-log increments) to perform concentration-response assessments of cell killing. After 1 to 5 days of culture in the presence of venetoclax, cell viability was assessed using CellTiter-Glo® reagent (Promega). IC50 values were determined by non-linear regression analysis of the concentration response data (Table 5 and Table 6)."}, "MC38 tumors": {"system": "MC38 tumors", "experiment": "MC38 model in immune deficient SCID mice", "format": "in vivo, mouse", "method": "All experiments were conducted in compliance with the National Institutes of Health Guide for Care and Use of Laboratory Animals guidelines in a facility accredited by the Association for the Assessment and Accreditation of Laboratory Animal Care (AAALAC). BALB/c, C57BL/6, CB6F1 (C57BL/6 bred with BALB/c) and SCID mice were obtained from Charles River (Wilmington, Mass.). SCID mice have severe combined immune deficiency (SCID) and are characterized by an absence of functional T- and B-cells.\nTo further test the direct effects of venetoclax on the immune cells, SCID mice were transplanted with MC38 cells and treated with vehicle or anti-PD-1/PD-L1/venetoclax as single agent and in combinations (FIGS. 12E and 12F)."}, "CMV-positive human PBMCs": {"system": "CMV-positive human PBMCs", "experiment": "CMV recall assay in the presence of anti-PD-1 antibody", "format": "cell-based", "settings": "1 μg/mL CMV antigen, day 4", "method": "The cytomegalovirus (CMV) recall assay was used assess the functional effects of venetoclax on antigen-experienced immune cells and to evaluate the effect of venetoclax on anti-PD1 immune response. This assay used cytomegalovirus (CMV) antigen to stimulate pre-existing memory T-cells in CMV-positive human PBMCs. Human CMV-positive PBMCs (Cat.No:1001; Lot. No. 3634JY17) and CMV antigen (Cat. No. 1004) were purchased from Astarte Biologics. 2×10^5 CMV-positive PBMCs were stimulated with 1 μg/mL of CMV antigen with or without inhibitors +/−anti-PD-1 (nivolumab) in Roswell Park Memorial Institute (RPMI) media supplemented with 10% fetal bovine serum (FBS) and 1% antibiotics. On day 4, secreted IFNγ was measured by ELISA and the live cells were analyzed using a live dead stain, Zombie Green™ (BioLegend®) using LSRFortessa™ X-20 instrument (BD Biosciences). Venetoclax reduced the percentage of live cells compared to DMSO as single agent or in combination with nivolumab (FIG. 10D)."}, "[1]": {"settings": "unstimulated, increasing concentrations"}}, "data": [{"smiles": "CC1(C)CCC(CN2CCN(c3ccc(C(=O)NS(=O)(=O)c4ccc(NCC5CCOCC5)c([N+](=O)[O-])c4)c(Oc4cnc5[nH]ccc5c4)c3)CC2)=C(c2ccc(Cl)cc2)C1", "note": "[Compound (I), venetoclax]", "values": [{"measurement": "proportion of the T-cell subsets", "setting": "human PBMCs; CD3/CD28 stimulated conditions", "result": "did not affect"}, {"measurement": "sensitivity of T-cells", "setting": "human PBMCs; PBMCs stimulated with anti-CD3 and anti-CD28 for 72 hours before treatment", "result": "not sensitive"}, {"measurement": "number of B-cells and T-cells (CD4+ and CD8+)", "setting": "human PBMCs; unstimulated PBMCs cultured 72 hours, then 24 hours treatment", "result": "dose-dependent decrease"}, {"measurement": "proportion of CD4+ TCM, CD8+ TEMRA and CD8+ TEM cells relative to surviving T-cells", "setting": "human PBMCs; [1]", "result": "increased"}, {"measurement": "proportion of naïve T-cells", "setting": "human PBMCs; [1]", "result": "decreased"}, {"measurement": "IC50", "setting": "NCI-H211; Homo sapiens, NCI-H211, 48 h, Lung, 10% HS, 2 days", "result": 0.03, "unit": "µM"}, {"measurement": "sensitivity at clinically relevant concentrations", "setting": "NCI-H211; only line of Tables 5 and 6", "result": "showed sensitivity"}, {"measurement": "anti-tumor efficacy / tumor growth in SCID mice", "setting": "MC38 tumors", "result": "did not show anti-tumor efficacy"}, {"measurement": "IFNγ secretion from antigen specific CMV+ T cells (ELISA)", "setting": "CMV-positive human PBMCs", "result": "remained comparable to DMSO control"}, {"measurement": "percentage of live cells compared to DMSO", "setting": "CMV-positive human PBMCs", "result": "reduced"}]}]}
